Results published in US20080195033A1, “Method of Delivery of Therapeutic Metal Ions, Alloys and Salts” (INTERNATIONAL BIO-THERAPEUTIC RESEARCH INC., priority 2004, published 2008).

What was measured:
[1] = system: HIVIIIB in CEM-SS cells (p24 antigen); assay: HIV p24 antigen in culture supernatant by antigen capture assay; format: cell-based, HIV-1
Procedure: (§1) In one test performed according to the invention, infection studies were carried out in a Level III facility in vitro using HIV-infected and noninfected cells. To establish infection, a viral dose of MOI 0.5 was added to a culture flask. The supernatants of control and test flasks were tested for the presence of the p24 antigen. Cells were then incubated in the presence and absence of silver ions produced by passing current through a sterile silver electrode present in the culture flask. Current was applied for 0, 1, 5, 10 and 30 minutes after incubation of virus with the cells. Cells were then be maintained in culture for 7 days and the concentration of p24 antigen in the supernatant was determined.
(§2) The cells used for such studies were CEM-SS cultured human lymphoblasts to allow detection and monitoring of HIV-induced synceytium. Cells were grown in enriched RPMI medium (20% fetal calf serum; FCS) and maintained in a 5% CO2 enriched tissue culture incubator at 37 degrees Celsius. Infection was conducted at a Multiplicity Dose of 0.5 using HIVIIIB prepared from previously infected CEM-SS stock suspensions.
(§3) In this test performed according to the invention, a silver catheter was introduced by drill into the tissue culture flask, sealed and the flask was then gas-sterilized. Silver ions were generated by connecting the silver electrode to a purpose-built device designed by one of the investigators (RE) powered by a 9 volt battery and designed to generate a steady current of 1.0 milliamp.
(§4) Cell viability was determined using trypan blue dye exclusion. The HIV p24 antigen concentrations in the culture supernatants were determined using an antigen capture assay.
(§5) Each experiment was performed in triplicate and repeated three times. Differences between cells exposed and unexposed to silver ions were compared by analysis of variance.

[2] = system: CEM-SS infected with HIVIIIB; assay: Cell viability of HIV-infected CEM-SS cells by trypan blue dye exclusion; format: cell-based, HIV-1; details: 1.0 mA; for Cell Viability, HIV-Infected Cells: 7 days post exposure
Procedure: as §1, §2, §3, §4, §5

## silver ions
[1]; after 10 minutes of 1.0 mA current flow
  Change in p24 antigen (in words): decline
[1]; over thirty minutes, 1.0 mA, p<0.05
  Decline in the concentration of p24 antigen in HIV-exposed cultures: 56%
[1]; silver ion incubation for five minutes
  Change in p24 concentration (in words): initial increase
[2]; 10 minutes of silver ion exposure
  Increase in cell viability of infected cells compared to similar cells not subjected to the silver ion treatment: greater than 25%
[2]; five minute treatment
  Cell Viability, HIV-Infected Cells: 45% alive
[2]; one minute treatment
  Cell Viability, HIV-Infected Cells: 37% alive
[2]; one minute treatment, listed as Silver Ions
  Cell Viability, HIV-Infected Cells: 37%
[2]; ten minute treatment
  Cell Viability, HIV-Infected Cells: 54% alive
[2]; ten minute treatment, listed as Silver Ions
  Cell Viability, HIV-Infected Cells: 54%
[2]; thirty minute treatment
  Cell Viability, HIV-Infected Cells: 28% alive
